Tested on: eIF2-GTP-Met-tRNAi ternary complex
Test: Ternary complex assay (dual luciferase, firefly/renilla ratio) in stable KLN-tTA/pBISA-DL(ATF-4) cells; HTS and hit confirmation
Type: cell-based, mouse
Design: Activity 10 uM / Activity 2.5 uM / Activity 5 uM: unit not given here
Details: confirmed hits of the screen (Table 5); for Activity 5 uM: compound at 5 uM; for Activity 10 uM: compound at 10 uM; for Activity 2.5 uM: compound at 2.5 uM
Description: For assay development, a bi-directional plasmid was designed in which a common promoter/enhancer complex drives the transcription of firefly luciferase (F-luc) ORF fused to the 5′ untranslated region (UTR) of ATF-4, and of the renilla luciferase (R-luc) ORF fused to a 90-nucleotide 5′ UTR derived from the plasmid (FIG. 6A). Because the tetracycline-regulated transactivator ((tTA), required for driving transcription from this vector) is not normally expressed in the mammalian cells, stable KLN cancer cells were constructed that expressed tTA (KLN-tTA).
The KLN-tTA colonies that drove expression of reporter genes from pBISA-DL plasmid were selected by transient transfection and dual luciferase assay. One of these KLN-tTA cell lines was transfected with the pBISA-DL^(ATF-4) expression vector, stable colonies were selected by dual luciferase assay and expanded. To determine if reduced availability of the eIF2*GTP*Met-tRNAi ternary complex increased the translation of firefly luciferase and decreased translation of renilla luciferase, selected KLN-tTA/pBISA-DL^(AFT-4) colonies were treated with thapsigargin (TG) or tunicamycin (TU), two agents known to cause phosphorylation of eIF2α.
This assay was then adapted for high throughput screening in 96 and 384 well plates. This was done by evaluating the cell density, length of exposure to compounds, DMSO tolerance and optimum firefly and renilla substrate. We then challenged these cells with thapsigargin or DMSO. […] Cell-based assays usually have higher variation than homogeneous in vitro assays due to position effect in the plate, and other variables associated with handling of cells and the plates.
Screening was conducted in 384 well white opaque plates (Nalge Nunc), 100 μl volume RPMI+10% fetal bovine serum. Cells were plated at the sub-confluent density of 10,000 cells/well, and allowed to attach for a period of 16-18 hours at 37° C., 5% CO2. Compounds were added as 1 μl of a 1 mM DMSO stock solution for a final screening concentration of 10 μM, using low-volume tips for transfer (Molecular Bioproducts). Cells were then incubated in the presence of compound for an additional sixteen hours, again at 37° C., 5% CO2. Following incubation 70 μl of the culture medium was removed from each well to allow for reagent addition and plates were allowed to equilibrate to room temperature for thirty minutes. Firefly luciferase reporter activity was then read by the addition of thirty microliters of Dual Glo Luciferase reagent (Promega), followed by one hour incubation at room temperature to allow for adequate signal buildup. Luminescence counting was conducted on a Microbeta Trilux using a 1 second read time. Renilla luciferase reporter activity was measured following addition of 30 μl Stop and Glo Luciferase reagent (Promega) and incubation identical to the one carried out for the firefly luciferase one.
Compound scores were interpreted as firefly luciferase activity divided by renilla luciferase activity, normalized to the plate's DMSO control. […] All data analysis was conducted using the BioAssay HTS software package (CambridgeSoft).
102,709 compounds in the NCI Open Chemical Repository were then screened using this HTS assay. […] Initial hits were confirmed by repeating the same dual luciferase assay in 96 well plates. Briefly, 20,000 cells/well were plated in triplicate for each concentration (10, 5 and 2.5 μM) of the compounds.

Row | Structure (SMILES) | Activity 5 uM | Activity 10 uM | Activity 2.5 uM
1 | CCN(CC)c1ccc(C(O)C2=CC(=O)c3ccccc3C2=O)cc1 (stereo not shown) [Compound 58338] | 11.604 | 17.599 | –
2 | COc1ccc(/C=C/c2ccc3ccccc3n2)cc1O.Cl [Compound 59070] | 6.227 | 7.423 | –
3 | C[C@]12CC[C@H]3[C@@H](CCC4=CC(=O)CC[C@@H]43)[C@@H]1CC[C@@]2(O)C#CC#C[C@]1(O)CC[C@H]2[C@@H]3CCC4=CC(=O)CC[C@@H]4[C@H]3CC[C@@]21C [Compound 59465] | 1.8 | 6.8 | –
4 | CCCCCCCC[N+](C)(CCCCCCCC)CCCCCCCC.[Cl-] [Compound 61369] | 3 | 4.4 | –
5 | O=c1cc(-c2ccc3ccccc3n2)oc2ccc(Cl)cc12 [Compound 61626] | 2.793 | 3.1685 | –
6 | CN(C)c1ccc(C=Cc2ccnc3ccccc23)cc1.Cl [Compound 63346] | 6.234 | 6.8235 | –
7 | [Cl][Hg][Cl].c1cnccn1 [Compound 65429] | – | – | 3.49
8 | S=P(Sc1ccccc1)(Sc1ccccc1)Sc1ccccc1 [Compound 65486] | 17.496 | 20.8755 | –
9 | c1cc[c]([Hg][O]c2cccc3cccnc23)cc1 [Compound 66326] | – | 5.2 | –
10 | Cc1ccc(N=P2(Nc3ccc(C)cc3)N=P(Nc3ccc(C)cc3)(N3CC3)NP(=Nc3ccc(C)cc3)(N3CC3)N2)cc1 (stereo not shown) [Compound 67112] | 3.1 | 16.3 | –
11 | Cc1cc(N(CCCl)CCCl)ccc1N=Nc1ccccc1C(=O)[O-].Cc1cc(N(CCCl)CCCl)ccc1N=Nc1ccccc1C(=O)[O-].[Cu+2] [Compound 68292] | 7.2 | 18.3 | –
12 | CCCCCCCCCCCC(c1ccccc1)[N+](C)(C)Cc1ccccc1.[Cl-] (stereo not shown) [Compound 69510] | 5.6 | 10.9 | –
13 | O=C1C(Cl)=C(Cl)C(=O)N1c1cccc2c(N3C(=O)C(Cl)=C(Cl)C3=O)cccc12 [Compound 69580] | 3.5 | 6.4 | –
14 | O=C(Nc1cccc(Cl)c1)Nc1cccc(Cl)c1 [Compound 69625] | 6.201 | 4.8565 | –
15 | O=C(CCl)N1c2ccccc2Sc2ccccc21 [Compound 71676] | 2.922 | 4.1015 | –
16 | Clc1cccc2ccc(-c3cc4ccccc4s3)nc12 [Compound 71689] | 5.724 | 7.139 | –
17 | c1csc(-c2ccc3ccccc3n2)c1 [Compound 71690] | 2.889 | 3.4315 | –
18 | O=C(/C=C/c1ccccc1)OC1CCCCC1 [Compound 71968] | 2.615 | 3.5615 | –
19 | O=C(Nc1ccc(Cl)cc1)Nc1ccc(Cl)c(Cl)c1 [Compound 72005] | 11.25 | 16.9235 | –
20 | O=C(OCCc1ccccc1)c1ccccc1O [Compound 72035] | 3.275 | 3.8265 | –
21 | CCOC(=O)c1cnc(SCc2ccccc2)nc1N [Compound 72266] | 2.946 | 3.233 | –
22 | COc1cc(NC(=O)c2cc3ccccc3cc2O)c(OC)cc1Cl [Compound 73118] | 8.006 | 10.008 | –
23 | CCCCCCCCCCCCCCCCCC[N+](C)(C)C.Cc1ccc(S(=O)(=O)[O-])cc1 [Compound 74566] | 1.7 | 3.7 | –
24 | CCCCCCCCCCCCCCCCCC[N+](C)(C)C.O=S(=O)([O-])c1ccccc1 [Compound 74568] | 2.1 | 4.8 | –
25 | C(=P(c1ccccc1)(c1ccccc1)c1ccccc1)[P+](c1ccccc1)(c1ccccc1)c1ccccc1.[Br-] [Compound 74740] | 5.6 | 4.1 | –
26 | Cl.NC(N)=N/N=C/N/N=C/c1ccccc1O [Compound 75971] | 3.111 | 3.3355 | –
27 | CC(=O)[O][Sn]([c]1ccccc1)([c]1ccccc1)[c]1ccccc1 [Compound 76068] | – | 3.68 | 1.02

Row | Structure (SMILES) | Activity 5 uM | Activity 10 uM | Activity 2.5 uM
28 | Oc1ccccc1/C=N/NC(=S)Nc1ccc2cn[nH]c2c1 [Compound 76429] | 4.409 | 5.2405 | –
29 | ClCCN(CCCl)c1ccc(C2=Nc3cccc4cccc(c34)N2)cc1 [Compound 78577] | – | 3.56 | 0.74
30 | CCCCCCCCCCCC[n+]1ccc(C)cc1C.Cc1ccc(S(=O)(=O)[O-])cc1 [Compound 78949] | 4.1 | 7.7 | –
31 | O=Nc1c2cc3ccccc3[nH]c-2c2ccccc12 [Compound 81523] | 7.526 | 8.879 | –
32 | Clc1ccc(/C=N\N2CCCCCC2)cc1 [Compound 82278] | 3.288 | 3.1525 | –
33 | CCCCCCCCCCCCCC[n+]1ccccc1.[Cl-] [Compound 82910] | 7.654 | 12.4425 | –
34 | CCN(CC)c1ccc(/C=C2\C=Cc3ccccc32)cc1 [Compound 83089] | 10.155 | 5.1265 | –
35 | O=[N+]([O-])c1ccc(N=Nc2c(Cl)cc(O)cc2Cl)cc1 [Compound 83318] | 12.03 | 14.6225 | –
36 | CNc1c(F)cc(N=Nc2ccccc2)cc1F [Compound 83335] | – | 3.31 | 2.77
37 | CCCCCCCCCCCC[N+](C)(C)C.[O-]c1c(Cl)c(Cl)c(Cl)c(Cl)c1Cl [Compound 85573] | 2.1 | 3.1 | –
38 | CC(=O)c1cccc(N=NNc2cccc(C(C)=O)c2)c1 [Compound 85646] | 3.127 | 4.18 | –
39 | C1=Cc2ccccc2/C1=C/c1ccc2c(c1)OCO2 [Compound 86430] | 4.871 | 6.063 | –
40 | COc1ccc(NNc2ccc(OC)cc2)cc1 [Compound 86489] | – | 3.17 | 2.73
41 | Cc1ccc(NN(C)c2ccc(C)cc2)cc1 [Compound 86537] | – | 7.51 | 3.85
42 | Cc1ccc(NNc2ccc(C)cc2)cc1 [Compound 86544] | 3.954 | 4.845 | –
43 | O=c1[nH]cnc2nc(-c3ccc(N(CCCl)CCCl)cc3)[nH]c12 [Compound 87086] | 6.572 | 5.461 | –
44 | Br.CCC1=C(C)/C(=C/c2[nH]c(C)c(CC)c2C)N=C1C [Compound 87240] | – | 37.28 | 1.45
45 | CN(C)c1ccc(N=Nc2ccc3ncccc3c2)cc1 [Compound 87323] | 5.277 | 6.0905 | –
46 | OCCc1ccc(-n2cnc3c(Nc4ccc(Cl)cc4)ncnc32)cc1 [Compound 87695] | – | 4.42 | 3.28
47 | O=Cc1cc(CCCCCCc2ccc(O)c(C=O)c2)ccc1O [Compound 88001] | 12 | 21.4655 | –
48 | Cc1cc(N(CCCl)CCCl)ccc1CN1CCCN(Cc2ccc(N(CCCl)CCCl)cc2C)C1c1ccccc1O [Compound 88655] | – | 18.32 | 0.7
49 | CN(CCC(=O)/C(=C\c1ccc(Cl)cc1)c1ccccc1)Cc1ccccc1.Cl [Compound 89160] | – | – | 9.22
50 | ClCCN(CCCl)c1ccc(C(Cl)(c2ccc(N(CCCl)CCCl)cc2)c2ccc(N(CCCl)CCCl)cc2)cc1 [Compound 89864] | 9.4 | 10.1 | –
51 | Clc1ccccc1-c1ncc(-c2ccccc2)o1 [Compound 90299] | – | 3.21 | 2.1
52 | Clc1ccc(-c2ncc(-c3ccccc3)o2)c(Cl)c1 [Compound 90467] | – | 3.88 | 2.6
53 | Cc1cccc(-c2ncc(-c3ccccc3)o2)c1 [Compound 90777] | 6.553 | 8.406 | –
